Source: patent US8367410B2, “Application of electrical stimulation for functional tissue engineering in vitro and in vivo” (Massachusetts Institute of Technology, priority 2003, dated 2013)
Marks after values point to notes of the source that are not given here.

How the values were obtained:
neonatal rat ventricles = assay: Contractile function (ET, MCR) of neonatal rat ventricle slices, palmitoleic acid treatment and washout; assay type: cell-based; settings: mean +/- SE
Procedure: (§1) Contractile function. The contractile function of engineered cardiac constructs was evaluated by monitoring contractile activity upon electrical stimulation at ×10 magnification using a microscope (Nikon Diaphot). Each construct was placed in a 100-mm petri dish containing […] Tyrode solution (140 mM NaCl, 5.4 mM KC1, 0.33 mM NaH2PO4, 1.8 mM CaCl2, 1 mM MgCl2, 5 mM HEPES, and 5.5 MM D-glucose; pH 7.4) between two custom-made gold electrodes connected to a cardiac stimulator (Nihon Kohden). The temperature was maintained at 37° C. using a heating tape (VWR) attached to the bottom of the petri dish.
(§2) The maximum capture rate (MCR) was defined as the maximum pacing frequency (in beats/min) for a synchronous stimulus response of the constructs. To measure MCR, the stimulation frequency was increased (from 60 to 600 beats/min, in 20 beats/min increments) at a constant voltage (equal to either 150% or 200% of the ET). The construct response was measured at each frequency, and the frequency was increased until the contractions became asynchronous, irregular, or completely ceased. The maximum frequency for synchronous contractions was recorded as the MCR. The value of ET, which was different from one construct to another due to the differences in their structures, served as the baseline voltage for the measurement of MCR.
(§3) Constructs cultured in perfused cartridges were compared with constructs cultured in mixed dishes and to neonatal rat ventricles (full thickness slices obtained by bisecting the left ventricle parallel to the base apex line). The effect of palmitoleic acid (PA), a gap junction blocker (4), was investigated by incubating constructs or slices of native ventricles in PA (8.3 mM in Tyrode solution) for 20 min at 37° C. and then determining ET and MCR as described above. To test whether the effect of PA was reversible, constructs were transferred to Tyrode solution and retested after an additional 20 min at 37° C.

[1] = test system: engineered cardiac constructs cultured in mixed dishes; assay: Contractile function (ET, MCR) of dish-grown constructs, palmitoleic acid treatment and washout; assay type: cell-based, rat
Procedure: as §1, §2, §3

[2] = test system: engineered cardiac constructs cultured in perfused cartridges; assay: Contractile function (ET, MCR) of perfused constructs, palmitoleic acid treatment and washout; assay type: cell-based, rat; settings: mean +/- SE
Procedure: as §1, §2, §3

[3] = test system: engineered cardiac constructs; assay: Contractile activity of constructs during incubation with palmitoleic acid; assay type: cell-based, rat
Procedure: as §1, §3

[4] = dish-grown construct, after washout of PA, mean +/- SE
[5] = perfused construct, after washout of PA

## CCCCCC/C=C\CCCCCCCC(=O)O [PA, palmitoleic acid]
Neonatal rat ventricles; after washout of PA (8.3 mM, 20 min, 37° C.), stimulation 60 beats/min
  ET (excitation threshold), After PA: 1.5 +/− 0.1 V
Neonatal rat ventricles; after washout of PA
  MCR at 150% ET, After PA: 465 +/− 15 beats/min
  MCR at 200% ET, After PA: 427 +/− 58 beats/min
[1]; dish-grown construct (7 days at 25 rpm), after washout of PA (8.3 mM, 20 min), 60 beats/min, mean +/- SE
  ET (excitation threshold), After PA: 4.4 +/− 0.1^ab V
[1]; [4]
  MCR at 150% ET, After PA: 378 +/− 31^c beats/min
  MCR at 200% ET, After PA: 380 +/− 31^c beats/min
[1]; dish-grown constructs
  Recovery of MCR after PA washout: failed to recover their baseline levels
[2]; perfused construct (7 days at 500 μm/s), after washout of PA (8.3 mM, 20 min), 60 beats/min
  ET (excitation threshold), After PA: 3.5 +/− 0.1^a V
[2]; [5]
  MCR at 150% ET, After PA: 415 +/− 35 beats/min
  MCR at 200% ET, After PA: 435 +/− 45 beats/min
[3]; after transfer to Tyrode solution, 20 min at 37° C.
  Contractile activity after the washout of PA: Contractile activity resumed
[3]; upon incubation with PA (8.3 mM in Tyrode solution)
  Voltage at which synchronous construct contractions could not be induced: > 9.9 V
